We go through 3 compounds from PMC13534584, “ATP13A4 gates extracellular polyamine levels to control excitatory synaptogenesis” (Nature Communications, 2026).

Experiment in all cases: ADP-Glo Max ATPase assay, dose-response
What all share (assay type): biochemical
Holding throughout (conditions): 5 mM ATP, 11 mM MgCl2, 100 mM KCl, MOPS-KOH pH 7, 37 °C, 0.001% DDM

The target in experiment [1] is T1, hATP13A4 (Homo sapiens, UniProt Q4VNC1).
T1 construct: gene ATP13A4; solubilised in DDM
T1 sequence (Q4VNC1 1-1196): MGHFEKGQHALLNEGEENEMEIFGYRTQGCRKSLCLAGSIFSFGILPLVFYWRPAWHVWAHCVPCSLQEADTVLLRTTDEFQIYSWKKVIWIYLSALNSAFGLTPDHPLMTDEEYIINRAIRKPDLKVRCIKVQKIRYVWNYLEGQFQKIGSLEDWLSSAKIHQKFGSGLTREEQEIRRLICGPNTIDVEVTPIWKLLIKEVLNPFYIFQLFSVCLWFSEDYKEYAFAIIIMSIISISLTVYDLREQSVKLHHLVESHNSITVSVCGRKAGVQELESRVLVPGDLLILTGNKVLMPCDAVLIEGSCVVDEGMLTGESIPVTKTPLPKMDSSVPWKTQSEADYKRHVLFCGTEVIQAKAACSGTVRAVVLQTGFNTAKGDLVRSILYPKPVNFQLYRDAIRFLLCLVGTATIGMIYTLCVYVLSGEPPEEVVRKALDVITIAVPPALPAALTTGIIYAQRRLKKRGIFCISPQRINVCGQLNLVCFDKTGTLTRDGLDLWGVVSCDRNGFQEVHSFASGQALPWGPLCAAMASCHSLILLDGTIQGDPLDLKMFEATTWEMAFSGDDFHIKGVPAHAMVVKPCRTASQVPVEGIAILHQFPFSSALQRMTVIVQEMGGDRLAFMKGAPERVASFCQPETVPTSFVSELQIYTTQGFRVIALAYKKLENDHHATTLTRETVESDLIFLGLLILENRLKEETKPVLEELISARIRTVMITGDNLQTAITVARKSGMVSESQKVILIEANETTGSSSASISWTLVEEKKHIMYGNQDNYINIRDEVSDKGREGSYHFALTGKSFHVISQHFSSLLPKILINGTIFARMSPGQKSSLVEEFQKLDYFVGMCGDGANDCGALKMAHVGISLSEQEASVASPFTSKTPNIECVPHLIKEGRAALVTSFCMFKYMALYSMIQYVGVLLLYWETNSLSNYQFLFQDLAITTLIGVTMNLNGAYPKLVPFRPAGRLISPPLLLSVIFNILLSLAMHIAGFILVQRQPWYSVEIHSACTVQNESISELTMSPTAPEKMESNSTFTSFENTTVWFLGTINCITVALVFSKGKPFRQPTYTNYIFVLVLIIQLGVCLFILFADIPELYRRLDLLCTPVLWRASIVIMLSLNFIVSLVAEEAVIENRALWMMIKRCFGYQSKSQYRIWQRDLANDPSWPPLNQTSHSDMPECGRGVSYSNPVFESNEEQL

Experiment [2] deals with T2, hATP13A4 (Homo sapiens, UniProt Q4VNC1, E276K).
T2 construct: gene ATP13A4; solubilised in DDM
T2 sequence (Q4VNC1 1-1196 E276K): T1 sequence (Q4VNC1 1-1196) with E276K

The target of experiment [3] is T3, hATP13A4 (Homo sapiens, UniProt Q4VNC1, A356V).
T3 construct: gene ATP13A4; solubilised in DDM
T3 sequence (Q4VNC1 1-1196 A356V): T1 sequence (Q4VNC1 1-1196) with A356V

Substitutions are numbered along the chain they refer to.

`NCCCNCCCCNCCCN` [SPM, spermine]: the ATPase stimulation entry in experiment [1] was “ATP13A4 exhibits the highest apparent affinity for spermine and spermidine”.
With `NCCCCCN` [cadaverine], the ATPase stimulation result in experiment [1] was “Putrescine, spermidine, spermine, cadaverine, and acetylated polyamine derivatives each stimulated ATPase activity”.
Take `NCCCCNCCCN` [SPD, spermidine]: in experiment [1], the ATPase stimulation result was “each stimulated ATPase activity of purified wild-type (WT) hATP13A4 in a concentration-dependent manner”. For the same compound, the “spermidine-dependent ATPase activity” value in experiment [2] is “p.E276K reduces spermidine-stimulated ATPase activity to a similar extent as p.A356V and p.E646D”; in experiment [3], “spermidine-dependent ATPase activity of purified, solubilized ATP13A4 (WT and disease-associated variants p.E276K, p.A356V”.
